Source: patent US20240382629A1, “HETEROBIVALENT AND HOMOBIVALENT AGENTS TARGETING FIBROBLAST ACTIVATION PROTEIN ALPHA AND/OR PROSTATE-SPECIFIC MEMBRANE ANTIGEN” (The Johns Hopkins University, priority 2021, published 2024)

Test system: U87 tumor
Assay: Biodistribution ([^18F]JHU1221823), carrier / specific activity study
Type: in vivo, mouse
Source text: Biodistribution of Representative Compounds

[1] = mean (one mouse), NOD/SCID, U87 tumor, Carrier 700, 60 min post injection
[2] = mean, + 0.05 nmole carrier, 60 min post injection
[3] = mean, + 0.1 nmole carrier, 60 min post injection
[4] = mean, + 0.25 nmole carrier, 60 min post injection
[5] = mean, NOD/SCID, U87 tumor, Carrier 350 (350 mCi/μmol), 60 min post injection
[6] = mean, Nude mice, U87 tumor, Baseline (~5000 mCi/μmol), 60 min post injection
[7] = mean, Nude mice, U87 tumor, Carrier 350 (350 mCi/μmol), 60 min post injection
[8] = mean, Nude mice, U87 tumor, Carrier 700, 60 min post injection
[9] = mean, U87 tumor, Baseline, second block (stands before <NOD/SCID> heading), 60 min post injection

## N#C[C@@H]1CCCN1C(=O)CNC(=O)c1ccnc2ccc(OCCCNC(=O)CCOCCOCCOCCOCCNC(=O)[C@H](CCCCNC(=O)c3ccc([18F])nc3)NC(=O)CN3CCN(CC(=O)O)CCN(CC(=O)O)CCN(CC(=O)O)CC3)cc12 [[^18F]JHU1221823]
[1]
  Bladder % ID/g: 8.20 % ID/g
  Blood % ID/g: 5.82 % ID/g
  Brain % ID/g: 0.16 % ID/g
  Fat % ID/g: 0.90 % ID/g
  Femur % ID/g: 2.41 % ID/g
  Heart % ID/g: 3.48 % ID/g
  Kidney % ID/g: 2.45 % ID/g
  Large intestine % ID/g: 2.26 % ID/g
  Liver % ID/g: 2.36 % ID/g
  Lung % ID/g: 3.56 % ID/g
  Muscle % ID/g: 1.99 % ID/g
  Pancreas % ID/g: 13.03 % ID/g
  Salivary gland % ID/g: 11.31 % ID/g
  Small intestine % ID/g: 3.48 % ID/g
  Spleen % ID/g: 1.46 % ID/g
  Stomach % ID/g: 1.64 % ID/g
  Tumor % ID/g: 7.79 % ID/g
mean, + 0.01 nmole carrier
  Bladder % ID/g: 2.00 % ID/g
  Blood % ID/g: 11.29 % ID/g
  Brain % ID/g: 0.30 % ID/g
  Fat % ID/g: 0.34 % ID/g
  Femur % ID/g: 3.53 % ID/g
  Heart % ID/g: 4.62 % ID/g
  Kidney % ID/g: 2.96 % ID/g
  Large intestine % ID/g: 1.62 % ID/g
  Liver % ID/g: 3.09 % ID/g
  Lung % ID/g: 6.15 % ID/g
  Muscle % ID/g: 1.88 % ID/g
  Pancreas % ID/g: 4.07 % ID/g
  Salivary gland % ID/g: 7.47 % ID/g
  Small intestine % ID/g: 2.20 % ID/g
  Spleen % ID/g: 2.01 % ID/g
  Stomach % ID/g: 1.49 % ID/g
  Tumor % ID/g: 2.37 % ID/g
[2]
  Bladder % ID/g: 4.29 % ID/g
  Blood % ID/g: 7.55 % ID/g
  Brain % ID/g: 0.21 % ID/g
  Fat % ID/g: 0.78 % ID/g
  Femur % ID/g: 3.25 % ID/g
  Heart % ID/g: 3.03 % ID/g
  Kidney % ID/g: 2.29 % ID/g
  Large intestine % ID/g: 1.53 % ID/g
  Liver % ID/g: 2.13 % ID/g
  Lung % ID/g: 4.10 % ID/g
  Muscle % ID/g: 1.83 % ID/g
  Pancreas % ID/g: 5.35 % ID/g
  Salivary gland % ID/g: 10.93 % ID/g
  Small intestine % ID/g: 1.82 % ID/g
  Spleen % ID/g: 1.50 % ID/g
  Stomach % ID/g: 1.27 % ID/g
  Tumor % ID/g: 3.42 % ID/g
[3]
  Bladder % ID/g: 1.75 % ID/g
  Blood % ID/g: 4.10 % ID/g
  Brain % ID/g: 0.12 % ID/g
  Fat % ID/g: 1.65 % ID/g
  Femur % ID/g: 3.72 % ID/g
  Heart % ID/g: 1.84 % ID/g
  Kidney % ID/g: 2.01 % ID/g
  Large intestine % ID/g: 2.35 % ID/g
  Liver % ID/g: 1.16 % ID/g
  Lung % ID/g: 2.57 % ID/g
  Muscle % ID/g: 1.97 % ID/g
  Pancreas % ID/g: 4.67 % ID/g
  Salivary gland % ID/g: 8.31 % ID/g
  Small intestine % ID/g: 1.64 % ID/g
  Spleen % ID/g: 0.96 % ID/g
  Stomach % ID/g: 1.00 % ID/g
  Tumor % ID/g: 5.08 % ID/g
[4]
  Bladder % ID/g: 2.51 % ID/g
  Blood % ID/g: 1.90 % ID/g
  Brain % ID/g: 0.08 % ID/g
  Fat % ID/g: 0.51 % ID/g
  Femur % ID/g: 4.26 % ID/g
  Heart % ID/g: 0.91 % ID/g
  Kidney % ID/g: 1.92 % ID/g
  Large intestine % ID/g: 0.65 % ID/g
  Liver % ID/g: 0.75 % ID/g
  Lung % ID/g: 1.37 % ID/g
  Muscle % ID/g: 1.25 % ID/g
  Pancreas % ID/g: 1.77 % ID/g
  Salivary gland % ID/g: 3.31 % ID/g
  Small intestine % ID/g: 0.91 % ID/g
  Spleen % ID/g: 0.46 % ID/g
  Stomach % ID/g: 0.69 % ID/g
  Tumor % ID/g: 3.52 % ID/g
[5]
  Bladder % ID/g: 4.33 % ID/g
  Blood % ID/g: 4.14 % ID/g
  Brain % ID/g: 0.09 % ID/g
  Fat % ID/g: 0.85 % ID/g
  Femur % ID/g: 3.43 % ID/g
  Heart % ID/g: 2.14 % ID/g
  Kidney % ID/g: 2.13 % ID/g
  Large intestine % ID/g: 2.08 % ID/g
  Liver % ID/g: 1.76 % ID/g
  Lung % ID/g: 2.74 % ID/g
  Muscle % ID/g: 2.03 % ID/g
  Pancreas % ID/g: 10.18 % ID/g
  Salivary gland % ID/g: 9.49 % ID/g
  Small intestine % ID/g: 2.29 % ID/g
  Spleen % ID/g: 1.80 % ID/g
  Stomach % ID/g: 1.47 % ID/g
  Tumor % ID/g: 8.64 % ID/g
[6]
  Bladder % ID/g: 2.38 % ID/g
  Blood % ID/g: 11.46 % ID/g
  Brain % ID/g: 0.23 % ID/g
  Fat % ID/g: 0.99 % ID/g
  Femur % ID/g: 2.41 % ID/g
  Heart % ID/g: 5.54 % ID/g
  Kidney % ID/g: 2.91 % ID/g
  Large intestine % ID/g: 1.40 % ID/g
  Liver % ID/g: 3.31 % ID/g
  Lung % ID/g: 6.97 % ID/g
  Muscle % ID/g: 1.75 % ID/g
  Pancreas % ID/g: 3.36 % ID/g
  Salivary gland % ID/g: 6.91 % ID/g
  Small intestine % ID/g: 2.70 % ID/g
  Spleen % ID/g: 2.06 % ID/g
  Stomach % ID/g: 1.23 % ID/g
  Tumor % ID/g: 2.33 % ID/g
[7]
  Bladder % ID/g: 1.73 % ID/g
  Blood % ID/g: 5.84 % ID/g
  Brain % ID/g: 0.14 % ID/g
  Fat % ID/g: 0.89 % ID/g
  Femur % ID/g: 4.15 % ID/g
  Heart % ID/g: 2.50 % ID/g
  Kidney % ID/g: 2.07 % ID/g
  Large intestine % ID/g: 1.76 % ID/g
  Liver % ID/g: 1.90 % ID/g
  Lung % ID/g: 3.45 % ID/g
  Muscle % ID/g: 2.41 % ID/g
  Pancreas % ID/g: 6.29 % ID/g
  Salivary gland % ID/g: 11.15 % ID/g
  Small intestine % ID/g: 2.42 % ID/g
  Spleen % ID/g: 1.29 % ID/g
  Stomach % ID/g: 1.56 % ID/g
  Tumor % ID/g: 2.27 % ID/g
[8]
  Bladder % ID/g: 2.23 % ID/g
  Blood % ID/g: 9.94 % ID/g
  Brain % ID/g: 0.20 % ID/g
  Fat % ID/g: 0.49 % ID/g
  Femur % ID/g: 3.06 % ID/g
  Heart % ID/g: 4.65 % ID/g
  Kidney % ID/g: 2.53 % ID/g
  Large intestine % ID/g: 1.62 % ID/g
  Liver % ID/g: 2.81 % ID/g
  Lung % ID/g: 5.57 % ID/g
  Muscle % ID/g: 2.07 % ID/g
  Pancreas % ID/g: 3.91 % ID/g
  Salivary gland % ID/g: 8.13 % ID/g
  Small intestine % ID/g: 2.18 % ID/g
  Spleen % ID/g: 1.72 % ID/g
  Stomach % ID/g: 1.37 % ID/g
  Tumor % ID/g: 2.01 % ID/g
[9]
  Bladder % ID/g: 6.92 % ID/g
  Blood % ID/g: 10.99 % ID/g
  Brain % ID/g: 0.22 % ID/g
  Fat % ID/g: 0.62 % ID/g
  Femur % ID/g: 2.37 % ID/g
  Heart % ID/g: 6.95 % ID/g
  Kidney % ID/g: 3.41 % ID/g
  Large intestine % ID/g: 2.18 % ID/g
  Liver % ID/g: 4.38 % ID/g
  Lung % ID/g: 7.03 % ID/g
  Muscle % ID/g: 1.64 % ID/g
  Pancreas % ID/g: 8.17 % ID/g
  Salivary gland % ID/g: 11.89 % ID/g
  Small intestine % ID/g: 3.66 % ID/g
  Spleen % ID/g: 2.16 % ID/g
  Stomach % ID/g: 1.81 % ID/g
  Tumor % ID/g: 3.08 % ID/g
mean, carrier not given
  Bladder % ID/g: 4.53 % ID/g
  Blood % ID/g: 9.54 % ID/g
  Brain % ID/g: 0.22 % ID/g
  Fat % ID/g: 1.07 % ID/g
  Femur % ID/g: 2.83 % ID/g
  Heart % ID/g: 4.65 % ID/g
  Kidney % ID/g: 2.73 % ID/g
  Large intestine % ID/g: 1.49 % ID/g
  Liver % ID/g: 2.99 % ID/g
  Lung % ID/g: 5.72 % ID/g
  Muscle % ID/g: 1.78 % ID/g
  Pancreas % ID/g: 2.14 % ID/g
  Salivary gland % ID/g: 6.93 % ID/g
  Small intestine % ID/g: 3.02 % ID/g
  Spleen % ID/g: 2.15 % ID/g
  Stomach % ID/g: 1.14 % ID/g
  Tumor % ID/g: 5.71 % ID/g
